Where two headings read alike, the source gives them in different places.
Columns and labels:
[1] = test system: avian influenza virus KBNP-0028 (KCTC 10866BP); format: cell-based, A/chicken/Korea/SNU0028/2000(H9N2)
[2] = test system: chicken embryo fibroblast (CEF) cells

SMILES: C=C(C)[C@@H]1CC[C@]2(C=O)CC[C@]3(C)[C@H](CC[C@@H]4[C@@]5(C)CC[C@H](O)C(C)(C)[C@@H]5CC[C@]43C)[C@@H]12 [12B-AJ-26A, betulinic aldehyde]
- Antiviral activity (in words) [1]: showed antiviral activity
- Cytotoxicity assay (absorbance) ([2]; 6.25 μg/mL): 0.352
- Cytotoxicity assay (absorbance) ([2]; 12.5 μg/mL): 0.326
- Cytotoxicity assay (absorbance) ([2]; 25 μg/mL): 0.324
- Cytotoxicity assay (absorbance) ([2]; 50 μg/mL): 0.325
- Cytotoxicity assay (absorbance) ([2]; 100 μg/mL): 0.434
- Cytotoxicity assay (absorbance) ([2]; 200 μg/mL): 0.421
